Experimental data taken from patent US9493455B2, “Azaindole derivatives as inhibitors of protein kinases” (ORIBASE PHARMA, priority 2012, dated 2016).

How the values were obtained:
[1] = test system: Ba/F3 T315I cells; assay: Xenograft mouse model, imatinib-resistant leukemia (CML); type: in vivo, mice
Protocol: (§1) Several xenograft mouse models were prepared: • 1) imatinib-resistant leukemia by subcutaneously implanting Ba/F3 T315I cells (1×10^8 cell/mL in sterile PBS), into the right flank of athymic nude male mice (HSD, 6-7 weeks old). When the tumor volume reached approximately 50 mm^3, mice were assigned randomly to either vehicle alone or OR0512 treatment groups (five mice per group). Mice were treated with either vehicle (DMSO) or OR0512 (40 mg/kg q.d.; per os for 11 consecutive days). • 2) human pancreatic adenocarcinoma model by subcutaneously implanting BxPC-3 cells (1×10^7 cell/mL in sterile PBS), into the right flank of athymic nude male mice (HSD, 6-7 weeks old). […]
(§2) Tumor volumes in mm^3 were determined three times a week with a digital caliper and calculated using the following formula: Tumor Volume (mm^3)=length (mm)×width (mm)×width (mm)×½. Body weight was measured three times a week, and mice were observed daily for monitoring signs of stress to detect possible toxicities. […] Data were analyzed with Prism 5.0b (GraphPad Software) by one-way ANOVA with Bonferroni post hoc. Tumor Growth Inibition (TGI) is calculated as the percent decrease of tumor growth at the end of the study in the OR0512 treatment group in comparison to the vehicle alone treatment group.

[2] = test system: HepG2; assay: In vitro cell proliferation assay (MTT); type: cell-based; settings: Homo sapiens, HepG2, 72 h
Procedure, shortened: (§3)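 Growth is assessed with the tetrazolium dye MTT following a 72 hr incubation with compound spanning 10 nM up to 3 μM, each dose tested twice on 5×10^3 plated cells per well.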

[3] = test system: HUVEC; assay: In vitro cell proliferation assay (MTT); type: cell-based; settings: Homo sapiens, 72 h
Protocol: Cancer cell lines (5×10^3 cells per well) or HUVEC (1×10^4 cells per well) or HRMEC (1×10^4 cells per well) were distributed in 96-well plates and incubating in duplicate with escalating concentrations (10 nM to 3 μM) of compounds for 72 hr. Cell proliferation was measured using MTT (3 [4,5-dimethylthiazol-2-yl]-2,5-diphenyltetrazolium bromide).

[4] = test system: BxPC-3; assay: In vitro cell proliferation assay (MTT); type: cell-based; settings: Homo sapiens, BXPC-3, 72 h
Procedure, shortened: as §3

[5] = test system: MDA-MB-231; assay: In vitro cell proliferation assay (MTT); type: cell-based; settings: Homo sapiens, MDA-MB-231, 72 h
Procedure, shortened: as §3

[6] = test system: Caki-2; assay: In vitro cell proliferation assay (MTT); type: cell-based; settings: Homo sapiens, CAKI-2, 72 h
Procedure, shortened: as §3

[7] = test system: BaF3 G250A; assay: In vitro cell proliferation assay (MTT); type: cell-based; settings: Mus musculus, BaF3, 72 h
Procedure, shortened: as §3

[8] = test system: HRMEC; assay: In vitro cell proliferation assay (MTT); type: cell-based; settings: 72 h
Procedure, shortened: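 Cells were seeded at 5×10^3 per well and exposed in duplicate to escalating compound concentrations from 10 nM to 3 μM for 72 hr. Proliferation was then measured by MTT reduction.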

[9] = test system: HuH6 Clone 5; assay: In vitro cell proliferation assay (MTT); type: cell-based; settings: HUH-6-clone5, 72 h
Procedure, shortened: as §3

[10] = test system: HT29; assay: In vitro cell proliferation assay (MTT); type: cell-based; settings: Homo sapiens, HT-29, 72 h
Procedure, shortened: as §3

[11] = test system: BaF3 E255K + M351T; assay: In vitro cell proliferation assay (MTT); type: cell-based; settings: Mus musculus, BaF3, 72 h
Procedure, shortened: as §3

[12] = test system: BaF3 T315I; assay: In vitro cell proliferation assay (MTT); type: cell-based; settings: Mus musculus, BaF3, 72 h
Procedure, shortened: as §3

[13] = test system: HuH7; assay: In vitro cell proliferation assay (MTT); type: cell-based; settings: Homo sapiens, Huh-7, 72 h
Procedure, shortened: as §3

[14] = test system: BaF3 G250E; assay: In vitro cell proliferation assay (MTT); type: cell-based; settings: Mus musculus, BaF3, 72 h
Procedure, shortened: as §3

[15] = test system: PC-3; assay: In vitro cell proliferation assay (MTT); type: cell-based; settings: Homo sapiens, PC-3, 72 h
Procedure, shortened: as §3

[16] = test system: H1975; assay: In vitro cell proliferation assay (MTT); type: cell-based; settings: Homo sapiens, NCI-H1975, 72 h
Procedure, shortened: as §3

[17] = test system: BaF3 WT; assay: In vitro cell proliferation assay (MTT); type: cell-based; settings: Mus musculus, BaF3, 72 h
Procedure, shortened: as §3

[18] = test system: HuCCT1; assay: In vitro cell proliferation assay (MTT); type: cell-based; settings: Homo sapiens, HuCCT-1, 72 h
Procedure, shortened: as §3

[19] = test system: BxPC-3 cells; assay: Xenograft mouse model, human pancreatic adenocarcinoma; type: in vivo, mice
Protocol: as §1, §2

EC50 [2]: ≤ 100 nM | EC50 [4]: ≤ 100 nM | EC50 [5]: ≤ 100 nM | EC50 [7]: ≤ 100 nM | EC50 [9]: ≥ 1000 nM | EC50 [10]: 100 to 1000 nM | EC50 [11]: ≤ 100 nM | EC50 [12]: ≤ 100 nM | EC50 [13]: ≤ 100 nM | EC50 [14]: ≤ 100 nM | EC50 [15]: 100 to 1000 nM | EC50 [16]: 100 to 1000 nM | EC50 [17]: ≤ 100 nM
Structure (SMILES): COC(=O)c1cc2cc(NCc3cc(NC(=O)c4ccc(CN5CCN(C)CC5)c(C(F)(F)F)c4)ccc3C)cnc2[nH]1 [OR0512]
Tumor Growth Inhibition - TGI ([1]; Ba/F3 T315I xenograft, mice, 40 mg/kg q.d. per os, 11 days, versus vehicle): 37% | decrease of tumor growth (in words) ([1]; xenografted mice, imatinib-resistant CML model expressing Bcr-Abl T315I): slight decrease of tumor growth | EC50 [3]: ≤ 100 nM | EC50 [6]: ≤ 100 nM | EC50 [8]: ≤ 100 nM | EC50 [18]: 100 to 1000 nM | Tumor Growth Inhibition - TGI ([19]; BxPC-3 xenograft, mice, 20 mg/kg q.d. per os, 32 days, versus vehicle, **P < 0.05): 85%** | decrease of tumor growth (in words) ([19]; xenografted mice, human pancreatic adenocarcinoma model): significantly induced a decrease of tumor growth
